Assay results published in patent US6737383B1, “Herbicidal oxadiazolidines” (priority 1999, dated 2004).

What was measured:
duck salad = test: Test B flood test duck salad; format: in vivo, Heteranthera limosa
In short: (§1)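 Flood test on plants grown to the 2-leaf stage; treated plants kept in greenhouse twelve to sixteen days, then visually rated against controls on a 0 (no effect) to 10 (complete control) scale.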

velvetleaf = test: Test B pre/postemergence velvetleaf; format: in vivo, Abutilon theophrasti
In short: (§2)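 Test chemicals in a non-phytotoxic solvent mixture with surfactant were sprayed preemergence onto planted seeds and postemergence onto plants 2 to 18 cm tall (1- to 4-leaf stage). After twelve to sixteen days in a greenhouse, injury was visually rated against untreated controls from 0 (no effect) to 10 (complete control).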

cocklebur = test: Test B pre/postemergence cocklebur; format: in vivo, Xanthium strumarium
In short: as §2

morningglory = test: Test B pre/postemergence morningglory; format: in vivo, Ipomoea hederacea
In short: as §2

bamyardgrass = test: Test B flood test barnyardgrass; format: in vivo, Echinochloa crus-galli
In short: as §1

bedstraw = test: Test B pre/postemergence bedstraw; format: in vivo, Galium aparine
In short: as §2

purple nutsedge = test: Test B pre/postemergence purple nutsedge; format: in vivo, Cyperus rotundus
In short: as §2

pigweed = test: Test B pre/postemergence pigweed; format: in vivo, Amaranthus retroflexus
In short: as §2

corn = test: Test B pre/postemergence corn; format: in vivo, Zea mays
In short: as §2

wild oat = test: Test B pre/postemergence wild oat; format: in vivo, Avena fatua
In short: as §2

rice = test: Test B flood test rice; format: in vivo, Oryza sativa
In short: as §1

wheat = test: Test B pre/postemergence wheat; format: in vivo, Triticum aestivum
In short: as §2

surinam grass = test: Test B pre/postemergence surinam grass; format: in vivo, Brachiaria decumbens
In short: as §2

smallflower flatsedge = test: Test B flood test smallflower flatsedge; format: in vivo, Cyperus difformis
In short: as §1

rape = test: Test B pre/postemergence rape; format: in vivo, Brassica napus
In short: as §2

blackgrass = test: Test B pre/postemergence blackgrass; format: in vivo, Alopecurus myosuroides
In short: as §2

[1] = Postemergence, Rate 62 g/ha, scale 0 to 10, 0 is no effect, 10 is complete control
[2] = Rate 125 g/ha, Postemergence section (flood test species), scale 0 to 10, 0 no effect, 10 complete control
[3] = Rate 500 g/ha, Postemergence section of Table B, 0 to 10 scale (0 no effect, 10 complete control)
[4] = flood test, listed under Postemergence, Rate 250 g/ha, scale 0 to 10, 0 no effect, 10 complete control
[5] = Postemergence, Rate 250 g/ha, scale 0 to 10, 0 no effect, 10 complete control
[6] = Preemergence, Rate 31 g/ha, visual rating, scale 0 to 10 (0 no effect, 10 complete control)
[7] = Preemergence, Rate 62 g/ha, scale 0 to 10, 0 is no effect, 10 is complete control
[8] = Preemergence, Rate 125 g/ha, scale 0 to 10 (0 no effect, 10 complete control)
[9] = Preemergence, Rate 250 g/ha, scale of 0 to 10 where 0 is no effect and 10 is complete control
[10] = Rate 125 g/ha, Postemergence, scale 0 to 10, 0 no effect, 10 complete control
[11] = Rate 31 g/ha, Postemergence, scale 0 to 10

COc1ccc(-n2c(=O)on(C(=O)N(c3ccc(F)cc3)C(C)C)c2=O)c(OC)c1 [Compound 33]
Ducksalad plant response rating (duck salad; [1]): 0
Ducksalad plant response rating (duck salad; [2]): 0
Ducksalad plant response rating (duck salad; [3]): 0
Ducksalad plant response rating (duck salad; [4]): 0
Velvetleaf plant response rating (velvetleaf; [1]): 0
Velvetleaf plant response rating (velvetleaf; [5]): 2
Velvetleaf plant response rating (velvetleaf; [6]): 0
Plant response rating, Velvetleaf (velvetleaf; [7]): 0
Plant response rating, Velvetleaf (velvetleaf; [8]): 0
Plant response rating, Velvetleaf (velvetleaf; [9]): 0
Velvetleaf plant response rating (velvetleaf; [10]): 1
Cocklebur plant response rating (cocklebur; [1]): 0
Cocklebur plant response rating (cocklebur; [5]): 6
Cocklebur plant response rating (cocklebur; [6]): 0
Plant response rating, Cocklebur (cocklebur; [7]): 0
Plant response rating, Cocklebur (cocklebur; [8]): 0
Plant response rating, Cocklebur (cocklebur; [9]): 0
Cocklebur plant response rating (cocklebur; [11]): 0
Cocklebur plant response rating (cocklebur; [10]): 0
Morningglory plant response rating (morningglory; [1]): 3
Morningglory plant response rating (morningglory; [5]): 9
Morningglory plant response rating (morningglory; [6]): 0
Plant response rating, Morningglory (morningglory; [7]): 0
Plant response rating, Morningglory (morningglory; [8]): 0
Plant response rating, Morningglory (morningglory; [9]): 1
Morningglory plant response rating (morningglory; [11]): 3
Morningglory plant response rating (morningglory; [10]): 8
Barnyardgrass plant response rating (bamyardgrass; [1]): 0
Barnyardgrass plant response rating (bamyardgrass; [2]): 0
Barnyardgrass plant response rating (bamyardgrass; [3]): 6
Barnyardgrass plant response rating (bamyardgrass; [4]): 3
Bedstraw plant response rating (bedstraw; [1]): 0
Bedstraw plant response rating (bedstraw; [5]): 2
Bedstraw plant response rating (bedstraw; [6]): 0
Plant response rating, Bedstraw (bedstraw; [7]): 0
Plant response rating, Bedstraw (bedstraw; [8]): 0
Plant response rating, Bedstraw (bedstraw; [9]): 0
Bedstraw plant response rating (bedstraw; [11]): 0
Bedstraw plant response rating (bedstraw; [10]): 1
Nutsedge plant response rating (purple nutsedge; [1]): 0
Nutsedge plant response rating (purple nutsedge; [5]): 0
Nutsedge plant response rating (purple nutsedge; [6]): 0
Plant response rating, Nutsedge (purple nutsedge; [7]): 0
Plant response rating, Nutsedge (purple nutsedge; [8]): 0
Plant response rating, Nutsedge (purple nutsedge; [9]): 0
Nutsedge plant response rating (purple nutsedge; [11]): 0
Nutsedge plant response rating (purple nutsedge; [10]): 0
Redroot pigweed plant response rating (pigweed; [1]): 0
Redroot pigweed plant response rating (pigweed; [5]): 3
Redroot pigweed plant response rating (pigweed; [6]): 0
Plant response rating, Redroot pigweed (pigweed; [7]): 0
Plant response rating, Redroot pigweed (pigweed; [8]): 0
Plant response rating, Redroot pigweed (pigweed; [9]): 0
Redroot pigweed plant response rating (pigweed; [11]): 0
Redroot pigweed plant response rating (pigweed; [10]): 2
Corn plant response rating (corn; [1]): 0
Corn plant response rating (corn; [5]): 0
Corn plant response rating (corn; [6]): 0
Plant response rating, Corn (corn; [7]): 0
Plant response rating, Corn (corn; [8]): 0
Plant response rating, Corn (corn; [9]): 0
Corn plant response rating (corn; [11]): 0
Corn plant response rating (corn; [10]): 0
Wild oats plant response rating (wild oat; [1]): 0
Wild oats plant response rating (wild oat; [5]): 1
Wild oats plant response rating (wild oat; [6]): 0
Plant response rating, Wild oats (wild oat; [8]): 2
Plant response rating, Wild oats (wild oat; [9]): 2
Wild oats plant response rating (wild oat; [10]): 0
Rice plant response rating (rice; [1]): 0
Rice plant response rating (rice; [2]): 0
Rice plant response rating (rice; [3]): 4
Rice plant response rating (rice; [4]): 2
Wheat plant response rating (wheat; [1]): 0
Wheat plant response rating (wheat; [5]): 0
Wheat plant response rating (wheat; [6]): 0
Plant response rating, Wheat (wheat; [7]): 0
Plant response rating, Wheat (wheat; [8]): 0
Plant response rating, Wheat (wheat; [9]): 0
Wheat plant response rating (wheat; [10]): 0
B. signalgrass plant response rating (surinam grass; [1]): 0
B. signalgrass plant response rating (surinam grass; [5]): 1
B. signalgrass plant response rating (surinam grass; [6]): 0
Plant response rating, B. signalgrass (surinam grass; [7]): 0
Plant response rating, B. signalgrass (surinam grass; [8]): 0
Plant response rating, B. signalgrass (surinam grass; [9]): 7
B. signalgrass plant response rating (surinam grass; [11]): 0
B. signalgrass plant response rating (surinam grass; [10]): 0
S. Flatsedge plant response rating (smallflower flatsedge; [1]): 0
S. Flatsedge plant response rating (smallflower flatsedge; [2]): 0
S. Flatsedge plant response rating (smallflower flatsedge; [4]): 2
Rape plant response rating (rape; [1]): 0
Rape plant response rating (rape; [5]): 3
Rape plant response rating (rape; [6]): 0
Plant response rating, Rape (rape; [7]): 0
Plant response rating, Rape (rape; [8]): 0
Plant response rating, Rape (rape; [9]): 0
Rape plant response rating (rape; [11]): 0
Rape plant response rating (rape; [10]): 0
Blackgrass plant response rating (blackgrass; [1]): 4
Blackgrass plant response rating (blackgrass; [5]): 5
Blackgrass plant response rating (blackgrass; [6]): 0
Plant response rating, Blackgrass (blackgrass; [7]): 0
Plant response rating, Blackgrass (blackgrass; [8]): 0
Plant response rating, Blackgrass (blackgrass; [9]): 0
Blackgrass plant response rating (blackgrass; [11]): 3
Blackgrass plant response rating (blackgrass; [10]): 5
